# Laboratory results: patent publication USRE48335E1, “Polymyxin derivatives as antimicrobial compounds” (priority 2014, dated 2020)
# Positions of bridges follow the written chain, without caps; N, C: chain ends. Non-standard residues stand in square brackets, D forms with d. Residues, ends and D or L forms follow the SMILES beside them. *: point of attachment. Heptanoyl(6-Me) = CC(C)CCCCC(=O)*; Octanoyl = CCCCCCCC(=O)*; Dab = NCC[C@H](N)C(=O)O; Abu = CC[C@H](N)C(=O)O; Dap = NC[C@H](N)C(=O)O
# Legend:
# [1] = test system: Enterobacter cloacae
# Method in brief: (§1)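 Using polymyxin B sulphate as comparator control, the trifluoroacetate-salt lipopeptides were assayed in CAMHB by broth microdilution to CLSI M100-S18, and MICs recorded.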
# [2] = test system: Pseudomonas aeruginosa
# Method in brief: as §1
# [3] = test system: Klebsiella pneumoniae
# Method in brief: as §1
# [4] = test system: Acinetobacter baumannii
# Method in brief: as §1
# [5] = test system: A. baumannii ATCC 19606; assay: In vivo efficacy in mouse blood infection model (neutropenic Swiss mice); conditions: compound, free base 4 mg/kg intravenously 2 h after inoculation, blood at 4 h
# Method in brief: (§2)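 Activity expressed as Δlog10 CFU/mL blood, treated minus saline control, 4 h after a single 4 mg/kg (free base) i.v. dose given 2 h post-infection. Bloodstream infection from i.v. early log-phase inoculum in Swiss mice made neutropenic by i.p. cyclophosphamide on days −4 (150 mg/kg) and −1 (100 mg/kg).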
# [6] = test system: K. pneumoniae FADDI-KP032; assay: as above; conditions: compound, free base 4 mg/kg intravenously 2 h after inoculation, blood at 4 h
# Method in brief: as §2
# [7] = test system: P. aeruginosa ATCC 27853; assay: as above; conditions: compound, free base 4 mg/kg intravenously 2 h after inoculation, blood at 4 h
# Method in brief: as §2
smiles,measurement,setting,value
"CC(C)CCCCC(=O)N[C@@H](CCN)C(=O)N[C@H](C(=O)N[C@@H](CCN)C(=O)N[C@H]1CCNC(=O)[C@H]([C@@H](C)O)NC(=O)[C@H](CCN)NC(=O)[C@H](CCN)NC(=O)[C@H]([C@@H](C)O)NC(=O)[C@@H](CC(C)C)NC(=O)[C@H](CCN)NC1=O)[C@@H](C)O [Compound 153, polymyxin M2] ({Heptanoyl(6-Me)}-[Dab]T[Dab][Dab][Dab][dL]T[Dab][Dab]T; lactam 4-C)","Minimum inhibitory concentration (MIC), Ec FADDI-EC001",[1],0.25 µg/mL
same,"Minimum inhibitory concentration (MIC), Ec FADDI-EC003",[1],0.25 µg/mL
same,"Minimum inhibitory concentration (MIC), Ec FADDI-EC006",[1],0.5 µg/mL
same,MIC,[2],0.5 µg/mL
same,"Minimum inhibitory concentration (MIC), Pa ATCC 27853",[2],0.5 µg/mL
same,"Minimum inhibitory concentration (MIC), Pa FADDI-PA022",[2],4 µg/mL
same,"Minimum inhibitory concentration (MIC), Pa FADDI-PA025",[2],>32 µg/mL
same,MIC,[3],0.25 µg/mL
same,MIC,[4],2 µg/mL
same,"Minimum inhibitory concentration (MIC), Ab ATCC 17978",[4],2 µg/mL
same,"Minimum inhibitory concentration (MIC), Ab ATCC 19606",[4],2 µg/mL
same,"Minimum inhibitory concentration (MIC), Ab FADDI-AB034",[4],1 µg/mL
same,Δ log (Treated-Control at 4 h),[5],−1.26 log10 CFU/mL
same,Δ log (Treated-Control at 4 h),[6],−3.59 log10 CFU/mL
same,Δ log (Treated-Control at 4 h),[7],−2.73 log10 CFU/mL
CCCCCCCC(=O)N[C@@H](CCN)C(=O)N[C@H](C(=O)N[C@@H](CN)C(=O)N[C@H]1CCNC(=O)[C@H]([C@@H](C)O)NC(=O)[C@H](CCN)NC(=O)[C@H](CCN)NC(=O)[C@H]([C@@H](C)O)NC(=O)[C@@H](CC(C)C)NC(=O)[C@H](CCN)NC1=O)[C@@H](C)O [Compound 33] (Octanoyl-[Dab]T[Dap][Dab][Dab][dL]T[Dab][Dab]T; lactam 4-C),"Minimum inhibitory concentration, Ec FADDI-EC001",[1],<0.125 µg/mL
same,"Minimum inhibitory concentration, Ec FADDI-EC003",[1],<0.125 µg/mL
same,"Minimum inhibitory concentration, Ec FADDI-EC006",[1],1 µg/mL
same,MIC,[2],0.5 µg/mL
same,"Minimum inhibitory concentration, Pa ATCC 27853",[2],0.5 µg/mL
same,"Minimum inhibitory concentration, Pa FADDI-PA022",[2],0.5 µg/mL
same,"Minimum inhibitory concentration, Pa FADDI-PA025",[2],8 µg/mL
same,MIC,[3],<0.125 µg/mL
same,MIC,[4],0.5 µg/mL
same,"Minimum inhibitory concentration, Ab A ATCC 17978",[4],0.25 µg/mL
same,"Minimum inhibitory concentration, Ab ATCC 19606",[4],0.5 µg/mL
same,"Minimum inhibitory concentration, Ab FADDI-AB034",[4],0.25 µg/mL
same,Δ log (Treated-Control at 4 h),[5],−1.40 log10 CFU/mL
same,Δ log (Treated-Control at 4 h),[6],−2.80 log10 CFU/mL
same,Δ log (Treated-Control at 4 h),[7],−1.55 log10 CFU/mL
CCCCCCCC(=O)N[C@@H](CCN)C(=O)N[C@H](C(=O)N[C@@H](CN)C(=O)N[C@H]1CCNC(=O)[C@H]([C@@H](C)O)NC(=O)[C@H](CCN)NC(=O)[C@H](CCN)NC(=O)[C@H](CC)NC(=O)[C@@H](CC(C)C)NC(=O)[C@H](CCN)NC1=O)[C@@H](C)O [Compound 46] (Octanoyl-[Dab]T[Dap][Dab][Dab][dL][Abu][Dab][Dab]T; lactam 4-C),"Minimum inhibitory concentration, Ec FADDI-EC001",[1],<0.125 µg/mL
same,"Minimum inhibitory concentration, Ec FADDI-EC003",[1],0.25 µg/mL
same,"Minimum inhibitory concentration, Ec FADDI-EC006",[1],<0.125 µg/mL
same,MIC,[2],0.5 µg/mL
same,"Minimum inhibitory concentration, Pa ATCC 27853",[2],0.5 µg/mL
same,"Minimum inhibitory concentration, Pa FADDI-PA022",[2],0.5 µg/mL
same,"Minimum inhibitory concentration, Pa FADDI-PA025",[2],2 µg/mL
same,MIC,[3],<0.125 µg/mL
same,MIC,[4],0.25 µg/mL
same,"Minimum inhibitory concentration, Ab A ATCC 17978",[4],0.25 µg/mL
same,"Minimum inhibitory concentration, Ab ATCC 19606",[4],0.25 µg/mL
same,"Minimum inhibitory concentration, Ab FADDI-AB034",[4],0.25 µg/mL
same,Δ log (Treated-Control at 4 h),[5],−1.56 log10 CFU/mL
same,Δ log (Treated-Control at 4 h),[6],−2.93 log10 CFU/mL
same,Δ log (Treated-Control at 4 h),[7],−2.53 log10 CFU/mL
